Four compounds from patent EP4737449A1 (Changchun Genescience Pharmaceutical Co., Ltd., priority 2023, dated 2025) can be followed below.

Data set [1] has as its target CYP 3A4 enzyme in human liver microsomes (Homo sapiens, UniProt P08684). The data set is described as follows: CYP3A4 inhibition experiment in human liver microsomes. The procedure: The inhibitory effects of the test compounds on CYP 3A4T (with testosterone as substrate) and 3A4M (with midazolam as substrate) in human liver microsomes were evaluated in vitro to assess the medication safety of the compounds.
This study used the human liver microsome system and the cytochrome P450 enzyme probe substrate recommended by FDA guidelines for in vitro drug interaction studies to investigate the inhibition of the CYP 3A4 enzyme in human liver microsomes by the test compounds.
Test group (TG): Human liver microsomes were incubated with different concentrations of test compounds, NADPH (final concentration 2.00 mM) and probe substrates of different sub-enzymes (Table 4) for 5 min.
Positive control group (PC): Human liver microsomes were incubated with inhibitors (Table 4), NADPH (final concentration 2.00 mM) and probe substrates of different sub-enzymes (Table 4) for 5 min. Table 4 Probe substrates of sub-enzymes, inhibitors and incubation systems
The system was pre-incubated at 37°C for 5 min, and then 15 µL of 8 mM NADPH solution preheated at 37°C for 5-10 min to start the reaction. After incubation of the 96-well plate at 37°C for 5 min, 180 µL of acetonitrile:methanol (ACN:MeOH=1:1) solution containing internal standard (IS) was added to terminate the reaction. […] 80 µL of the supernatant was taken, added to 120 µL of ultrapure water, shaken evenly, and then detected by LC-MS/MS.
199 µL of 0.2 mg/mL HLM and 1 µL of 1 mM positive control inhibitor (ketoconazole) working solutions were taken and mixed evenly. 30 µL of the drug-containing liver microsome solution was taken and added to a 96-well plate, then 10 µL of substrate working solution (20 µM midazolam) was added, in duplicate. The system was pre-incubated at 37°C for 5 min, and then 15 µL of 8 mM NADPH solution preheated at 37°C for 5-10 min to start the reaction. After incubation of the 96-well plate at 37°C for 5 min, 180 µL of ACN:MeOH(1:1) solution containing IS was added to terminate the reaction. […] 80 µL of the supernatant was taken, added to 120 µL of ultrapure water, shaken evenly, and then detected by LC-MS/MS.
4.2.5.1 The relative activity of CYP450 sub-enzymes at different concentrations was calculated by dividing the peak area ratio (analyte peak area/internal standard peak area) of metabolites in the presence of the test sample or positive control by the peak area ratio of metabolites in the solvent control sample in the absence of the test article or positive control, according to the following formula: [formula] [formula]
4.2.5.2 Half maximal inhibitory concentration (IC50) was obtained by fitting according to the following model formula using Prism software: Y = Bottom + (Top−Bottom)/(1+10^(∧)((LogIC50−X)×HillSlope)) [formula]
X is the test sample concentration converted to logarithm (Log µM), Y is the relative activity (% of NC), Bottom and Top represent the percentage of enzyme activity at the bottom platform and top platform of the curve, respectively, and HillSlope represents the slope; to optimize the fitting effect, the use of other (nonlinear) dose-response models for fitting is not considered as a deviation from the protocol.
For orientation: Microsomes from liver hold many membrane-bound enzymes, among them those of drug oxidation.

Data set [2] addresses T1, PXR (Homo sapiens, UniProt O75469).
T1 construct: expressed in transfected cells; host or cells: DPX2 cells
T1 sequence (O75469 1-434): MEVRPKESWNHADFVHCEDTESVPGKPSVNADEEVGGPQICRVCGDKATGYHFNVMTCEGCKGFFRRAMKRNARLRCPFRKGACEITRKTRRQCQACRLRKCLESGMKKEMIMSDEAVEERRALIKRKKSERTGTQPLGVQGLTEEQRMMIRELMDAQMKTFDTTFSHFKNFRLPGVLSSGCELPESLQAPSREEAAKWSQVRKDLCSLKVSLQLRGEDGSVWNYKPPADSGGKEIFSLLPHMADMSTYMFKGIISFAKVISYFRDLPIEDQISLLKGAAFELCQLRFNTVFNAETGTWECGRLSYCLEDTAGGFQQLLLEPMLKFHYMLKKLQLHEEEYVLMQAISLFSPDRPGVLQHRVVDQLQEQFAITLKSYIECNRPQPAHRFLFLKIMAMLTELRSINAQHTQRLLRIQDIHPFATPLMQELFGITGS
The data set is described as follows: PXR activity test in DPX2 cells (luciferase). It counts as cell-based. The conditions noted are these: for Activation fold: DPX2 cells, 24 h; for Percentage relative to positive control: positive control rifampicin. The procedure:
The cells were digested when they covered 80-90% of the bottom of the flask. • 3) The surface of the T-75 cultured cells was washed with 10 mL of PBS, PBS was removed by pipetting, 3-5 mL of trypsin was added, the cells were digested at 37°C for 5 min or until the cells were completely digested and in a suspended state, and excessive culture medium containing fetal bovine serum was added to terminate trypsin digestion. • 4) The cell suspension was transferred to a conical-bottom centrifuge tube and centrifuged at 150 g for 5 min at room temperature. The supernatant was carefully removed by pipetting and the cells were re-suspended in treatment medium to have a concentration of 3.2×10^5 cells/mL (incubation time 24 h, plate seeding density […]). In a 384-well cell culture plate, 25 μL of cell suspension was added to each well. The cell plate was placed in an incubator at 95% humidity, 37°C, and 5% CO2 for 24 h. […] The cell plates were placed in an incubator and further incubated for 24 h. • 3) Before starting experiments with the substrate, cell morphology and monolayer integrity were checked to ensure the monolayer is of acceptable quality for studies. […] GF-AFC substrate (10 μL) was added to Assay Buffer (10 ml) to form 2X reagent, which was then diluted into 1X reagent with 10 mL of PBS. ONE-Glo Luciferase substrate was added to ONE-Glo Luciferase Assay Buffer. • 3) The culture plate was taken out of the incubator, the culture medium was discarded, 1X CellTiter-Fluor^TM reagent was poured into the sample loading slot, 25 μL of reagent was added to each well of the culture plate using a pipetting workstation, and then the plate was placed in the incubator for incubation for 30 min. • 4) The cell culture plate was taken out from the incubator, cooled slightly to room temperature, and the fluorescence value was measured by automatic quantitative microplate reader. […] The activation fold of mRNA is calculated using the following formula: Fold activation = (RLUtest/RFUtest)/(RLUvehicle/RFUvehicle) [formula] 2) The percentage of cell viability of the compound is calculated as follows: Cell Viability % = (RFUtest/RFUvehicle) × 100 [formula] 3) The percentage relative to the positive control is calculated according to the following formula: Percent of positive control(%) = (Foldactivationtest/[…]:?}

Where [3] appears, read: CYP 3A4M IC50, human liver microsomes, midazolam as substrate.
Setting [4] is: CYP 3A4T IC50, human liver microsomes, testosterone as substrate.
The mark [5] stands for this setting: Concentration 1 (µM per method).
Setting [6] is: Concentration 10 (µM per method).

Each structure is given as a SMILES string.

Sequence of CYP 3A4 enzyme in human liver microsomes (P08684 whole entry): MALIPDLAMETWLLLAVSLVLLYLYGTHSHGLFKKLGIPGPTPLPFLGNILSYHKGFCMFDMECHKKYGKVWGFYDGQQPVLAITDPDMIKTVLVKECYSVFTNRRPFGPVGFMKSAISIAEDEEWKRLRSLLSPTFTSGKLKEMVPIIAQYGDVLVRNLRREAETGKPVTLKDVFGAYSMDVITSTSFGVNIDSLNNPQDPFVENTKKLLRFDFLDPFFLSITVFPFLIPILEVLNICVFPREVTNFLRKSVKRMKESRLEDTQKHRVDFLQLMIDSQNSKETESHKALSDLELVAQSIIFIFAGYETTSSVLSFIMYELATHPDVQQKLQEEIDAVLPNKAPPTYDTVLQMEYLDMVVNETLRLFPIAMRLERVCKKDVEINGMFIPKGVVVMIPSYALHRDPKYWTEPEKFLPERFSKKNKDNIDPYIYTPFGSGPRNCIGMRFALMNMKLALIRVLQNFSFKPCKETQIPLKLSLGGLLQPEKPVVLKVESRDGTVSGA

Turning to `CN1CC[C@@H](Nc2cccc3c(CC(F)(F)F)c(C#CCNC(=O)c4cnn(C(C)(C)C)c4)nn23)[C@@H](F)C1` [Compound 001, 1-tert-butyl-N-[3-(7-{[(3S,4R)-3-fluoro-1-methylpiperidin-4-yl]amino}-3-(2,2,2-trifluoroethyl)pyrazolo[1,5-a]pyridin-2-yl)prop-2-yn-1-yl]-1H-pyrazole-4-carboxamide], the IC50 (as a rule, the concentration at which inhibition is half-maximal) in data set [1] (setting [3]) was found to be 26.3 µM; in data set [1] (setting [4]) it was 27.2 µM. The Activation fold in data set [2] (setting [5]) was determined as 1.41; in data set [2] (setting [6]), 3.05. For the same compound, the entries for the “Percentage relative to positive control” value in data set [2] (setting [5]) and in data set [2] (setting [6]) were 8.07% and 17.50%, respectively.

In the case of `CN1CC[C@@H](Nc2cccc3c(CC(F)(F)F)c(C#CCNC(=O)c4cnn(C(C)(C)C)c4N)nn23)[C@@H](F)C1` [Compound 047], the half-maximal inhibitory concentration (IC50) was found to be 20.7 µM in data set [1] (setting [3]) and 17.3 µM in data set [1] (setting [4]). For the same compound, the values for the Activation fold in data set [2] (setting [5]) and in data set [2] (setting [6]) were 1.12 and 2.66, respectively. In addition, the “Percentage relative to positive control” value in data set [2] (setting [5]) was 5.67%; in data set [2] (setting [6]) it was 13.47%.

`CNC(=O)c1ccc(NCC#Cc2cc3c(N[C@@H]4CCN(C)C[C@@H]4F)cccc3n2CC(F)(F)F)c(OC)c1` [Control compound, reference compound]: the figures for the IC50 in data set [1] (setting [3]) and in data set [1] (setting [4]) were 9.4 µM and 4.3 µM, respectively. Further, the Activation fold turned out to be 1.40 in data set [2] (setting [5]) and 8.58 in data set [2] (setting [6]). For the same compound, the “Percentage relative to positive control” value is 8.61% in data set [2] (setting [5]) and 52.82% in data set [2] (setting [6]).

As for `CCn1ncc(C(=O)NCC#Cc2nn3c(N[C@@H]4CCN(C)C[C@@H]4F)cccc3c2CC(F)(F)F)c1N` [Compound 261, 5-amino-1-ethyl-N-[3-(7-{[(3S,4R)-3-fluoro-1-methylpiperidin-4-yl]amino}-3-(2,2,2-trifluoroethyl)pyrazolo[1,5-a]pyridin-2-yl)prop-2-yn-1-yl]-1H-pyrazole-4-carboxamide], the IC50 was 15.6 µM in data set [1] (setting [3]) and 7.4 µM in data set [1] (setting [4]). Further, the Activation fold amounted to 0.89 in data set [2] (setting [5]) and 1.43 in data set [2] (setting [6]). In addition, the “Percentage relative to positive control” value was found to be 4.48% in data set [2] (setting [5]) and 7.20% in data set [2] (setting [6]).
